inhibition, pest or weed control and melting point data for 14 compounds are collected here from patent US20170000133A1, “BENZOXABOROLE FUNGICIDES” (SYNGENTA PARTICIPATIONS AG, priority 2013, published 2017).

Series [1] relates to Mycosphaerella graminicola (Septoria tritici). Briefly: Mycosphaerella graminicola (Septoria tritici) / liquid culture (Septoria blotch). The format is cell-based. To be noted: Zymoseptoria tritici, PDB potato dextrose broth, 24° C., 4-5 days after application, read-out: disease control (inhibition of growth determined photometrically). The gist of the method:
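Conidia from cryostorage were suspended in potato dextrose broth and added to test compound in DMSO at 200 ppm in microtiter wells. Plates were incubated at 24° C and growth inhibition measured photometrically 4-5 days after application.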

Series [2] has as its system Puccinia recondita f. sp. tritici. Nature of the series: Puccinia recondita f. sp. tritici / wheat / leaf disc curative (brown rust). The format is in vivo. As to conditions: foliar, 192 h, wheat leaf segments, applied one day after inoculation, assessed 8 dpi, read-out: disease control. The protocol: 4. Puccinia recondita f. sp. tritici/Wheat/Leaf Disc Curative (Brown Rust) Wheat leaf segments are placed on agar in multiwell plates (24-well format). The leaf disks are then inoculated with a spore suspension of the fungus. One day after inoculation the test solution is applied. After appropriate incubation the activity of a compound is assessed 8 dpi (days after inoculation) as curative fungicidal activity. Dose range: 200-22 ppm.

For series [3], the system named is Thanatephorus cucumeris (Rhizoctonia solani). Nature of the series: Thanatephorus cucumeris (Rhizoctonia solani) / liquid culture (foot rot, damping-off). As to conditions: PDB potato dextrose broth, 24° C., 3-4 days after application, read-out: disease control (inhibition of growth determined photometrically). The format is cell-based. The gist of the method: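 Mycelial fragments from fresh liquid culture were suspended in potato dextrose broth and added to compound in DMSO at 200 ppm. After 3-4 days at 24 °C, growth inhibition was measured photometrically.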

Series [4] deals with Sclerotinia sclerotiorum. Nature of the series: Sclerotinia sclerotiorum / liquid culture (cottony rot). In kind it is cell-based. To be noted: PDB potato dextrose broth, 24° C., 3-4 days after application, read-out: disease control (inhibition of growth determined visually). The protocol:
18. Sclerotinia sclerotiorum/Liquid Culture (Cottony Rot): Mycelia fragments of a newly grown liquid culture of the fungus were directly mixed into nutrient broth (PDB potato dextrose broth). After placing a (DMSO) solution of the test compounds into a microtiter plate (96-well format) the nutrient broth containing the fungal material was added. The test plates were incubated at 24° C. and the inhibition of growth was determined visually 3-4 days after application.

Series [5] has as its system Pythium ultimum. Nature of the series: Pythium ultimum / liquid culture (seedling damping off). The format is cell-based. As to conditions: Globisporangium ultimum; 200 ppm; potato dextrose broth, 24° C., 2-3 days after application; read-out: disease control (inhibition of growth determined photometrically).
The subject of series [6] is Mycosphaerella arachidis (Cercospora arachidicola). Briefly: Mycosphaerella arachidis (Cercospora arachidicola) / liquid culture (early leaf spot). In kind it is cell-based. To be noted: PDB potato dextrose broth, 24° C., 4-5 days after application, read-out: disease control (inhibition of growth determined photometrically). The gist of the method: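 Conidia from cryogenic storage mixed into potato dextrose broth and added to compound at 200 ppm in DMSO. Incubation at 24° C.; growth inhibition read photometrically 4-5 days after application.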

For series [7], the system named is Monographella nivalis (Microdochium nivale). Nature of the series: Monographella nivalis (Microdochium nivale) / liquid culture (foot rot cereals). The format is cell-based. As to conditions: PDB potato dextrose broth, 24° C., 4-5 days after application, read-out: disease control (inhibition of growth determined photometrically).
The subject of series [8] is Plasmopara viticola. Nature of the series: whole plant or invertebrate. To be noted: foliar, read-out: disease control. In kind it is in vivo.
Series [9] has as its system Gaeumannomyces graminis. Nature of the series: Gaeumannomyces graminis / liquid culture (take-all of cereals). To be noted: PDB potato dextrose broth, 24° C., 4-5 days after application, read-out: disease control (inhibition of growth determined photometrically). The format is cell-based. The gist of the method: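 Cryo-stored mycelial fragments in potato dextrose broth exposed to compound in DMSO at 200 ppm. Incubated at 24 °C; growth inhibition read photometrically 4–5 days after application.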

Series [10] has as its system Glomerella lagenarium (Colletotrichum lagenarium). Briefly: Glomerella lagenarium (Colletotrichum lagenarium) / liquid culture (anthracnose). In kind it is cell-based. As to conditions: Colletotrichum orbiculare, PDB potato dextrose broth, 24° C., 3-4 days after application, read-out: disease control (inhibition of growth measured photometrically). In a few lines:
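Conidia of G. lagenarium from cryogenic storage were suspended in potato dextrose broth and added to test compound in DMSO at 200 ppm. Plates were incubated at 24° C, and growth inhibition was read photometrically 3-4 days after application.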

The test system of series [11] is Fusarium culmorum. Nature of the series: microbe, parasite or virus in culture. To be noted: read-out: disease control (inhibition of growth determined visually). In kind it is cell-based.
Series [12] relates to Botryotinia fuckeliana (Botrytis cinerea). Nature of the series: Botryotinia fuckeliana (Botrytis cinerea) / liquid culture (gray mould). The format is cell-based. To be noted: Vogels broth, 24° C., 3-4 days after application, read-out: disease control (inhibition of growth determined photometrically). The protocol:
10. Botryotinia fuckeliana (Botrytis cinerea)/Liquid Culture (Gray Mould): Conidia of the fungus from cryogenic storage were directly mixed into nutrient broth (Vogels broth). After placing a DMSO solution of test compound into a 96-well microtiter plate at an application rate of 200 ppm, the nutrient broth containing the fungal spores was added. The test plates were incubated at 24° C. and the inhibition of growth was determined photometrically 3-4 days after application.

Series [13] deals with Puccinia recondita f. sp. tritici. Briefly: Puccinia recondita f. sp. tritici / wheat / leaf disc preventative (brown rust). The format is in vivo. To be noted: foliar, wheat leaf segments cv Kanzler, inoculated 1 day after application, assessed 7-9 days after application, read-out: disease control. The source says: 3. Puccinia recondita f. sp. tritici/Wheat/Leaf Disc Preventative (Brown Rust): Wheat leaf segments cultivated variety (cv) Kanzler were placed on agar in 24-well plates and sprayed with formulated test compound diluted in water at an application rate of 200 ppm. The leaf disks were inoculated with a spore suspension of the fungus 1 day after application.

Series [14] concerns Phaeosphaeria nodorum (Septoria nodorum). Nature of the series: Phaeosphaeria nodorum (Septoria nodorum) / wheat / leaf disc preventative (glume blotch). As to conditions: Parastagonospora nodorum, foliar, wheat leaf segments cv Kanzler, inoculated 2 days after application, assessed 5-7 days after application, read-out: disease control. The format is in vivo. The protocol:
5. Phaeosphaeria nodorum (Septoria nodorum)/Wheat/Leaf Disc Preventative (Glume Blotch): Wheat leaf segments (cv) Kanzler were placed on agar in a 24-well plate and sprayed with formulated test compound diluted in water at an application rate of 200 ppm. The leaf disks were inoculated with a spore suspension of the fungus 2 days after application. The inoculated test leaf disks were incubated at 20° C. and 75% relative humidity under a light regime of 12/12 h (light/dark) in a climate cabinet and the activity of a compound was assessed as percent disease control compared to untreated when an appropriate level of disease damage appears in untreated check leaf disks (5-7 days after application).

Some results are limits rather than exact numbers.

As to `C#CCCOC(=O)c1cc2c(cc1F)COB2O` [Compound 418], the inhibition at 200 ppm in series [1], in series [3], in [4], in series [5], in series [6] and in series [7] was at least 80% in each case. Moreover, in [9], the inhibition at 200 ppm is at least 80%. In addition, the pest or weed control at 200 ppm in series [2] and in series [8] was at least 80% each time.
Consider `N#CCOC(=O)c1cc2c(cc1F)COB2O` [Compound 401], for which the pest or weed control at 200 ppm in series [2] and in [8] was at least 80% each time. Moreover, the inhibition at 200 ppm in [5] was at least 80%.
For the compound `C=CCC(OC(=O)c1ccc2c(c1)B(O)OC2)C(=O)OC` (stereo not shown) [Compound 348], the pest or weed control at 200 ppm in [2] and in [8] was at least 80% in each case. The inhibition at 200 ppm in [10], in series [3], in series [5] and in series [6] was at least 80% each time.
`COC(=O)C#CCOC(=O)c1cc2c(cc1F)COB2O` [Compound 424] displayed a melting point of 112 to 114 °C. In addition, the inhibition at 200 ppm in series [1] was at least 80%. Also, the inhibition at 200 ppm in series [10] was at least 80%. Besides, the inhibition at 200 ppm in series [11] is at least 80%. In addition, the inhibition at 200 ppm in series [3] is at least 80%. In series [4], the inhibition at 200 ppm was at least 80%. The inhibition at 200 ppm in [5] is at least 80%. The inhibition at 200 ppm in series [6] is at least 80%. Further, in series [7], the inhibition at 200 ppm is at least 80%. Also, in series [8], the pest or weed control at 200 ppm was at least 80%. Besides, the inhibition at 200 ppm in series [9] was at least 80%. Moreover, the inhibition at 200 ppm in series [12] is at least 80%.
As for `C=C(C)COC(=O)c1cc2c(cc1F)COB2O` [Compound 402], the inhibition at 200 ppm in series [1], in series [3], in series [5], in series [6], in [7] and in [9] was at least 80% in each case. Moreover, the pest or weed control at 200 ppm in series [2] is at least 80%.
Turning to `C=C(C)COC(=O)c1ccc2c(c1)B(O)OC2` [Compound 339], the inhibition at 200 ppm in series [1], in series [10], in series [3], in [5], in [6] and in [7] was at least 80% each time. Further, the inhibition at 200 ppm in [9] was at least 80%. Further, the pest or weed control at 200 ppm in [2] and in [8] was at least 80% each time.
On to `O=C(OCC(F)F)c1ccc2c(c1)B(O)OC2` [Compound 365], for which the pest or weed control at 200 ppm in series [2] and in series [8] was at least 80% in each case. Besides, the inhibition at 200 ppm in series [5], in series [6] and in series [9] was at least 80% throughout.
With `COC(=O)COC(=O)c1cc2c(cc1F)COB2O` [Compound 419], the melting point was 112 to 114 °C. For the same compound, the inhibition at 200 ppm in [1] was at least 80%. In series [2], the pest or weed control at 200 ppm is at least 80%. Moreover, the inhibition at 200 ppm in [10] was at least 80%. The inhibition at 200 ppm in series [11] is at least 80%. For the same compound, in series [3], the inhibition at 200 ppm was at least 80%. The inhibition at 200 ppm in series [4] was at least 80%. In series [5], the inhibition at 200 ppm was at least 80%. In addition, the inhibition at 200 ppm in series [6] is at least 80%. The inhibition at 200 ppm in series [7] was at least 80%. The pest or weed control at 200 ppm in [8] was at least 80%. Also, in series [13], the pest or weed control at 200 ppm was at least 80%. Also, the inhibition at 200 ppm in series [9] was at least 80%. For the same compound, the inhibition at 200 ppm in series [12] is at least 80%.
As for `C#CCCOC(=O)c1ccc2c(c1)B(O)OC2` [Compound 355], the inhibition at 200 ppm in series [1], in [10], in series [3], in series [5], in series [6] and in series [7] was at least 80% in each case. In addition, the inhibition at 200 ppm in series [9] is at least 80%. The pest or weed control at 200 ppm in series [2] and in series [8] was at least 80% each time.
`COC(=O)COC(=O)c1cc2c(cc1Cl)COB2O` [Compound 230]: the inhibition at 200 ppm in series [1], in [10], in [11], in series [3], in [4] and in series [5] was at least 80% throughout. The inhibition at 200 ppm in series [6], in [7] and in series [9] was at least 80% each time. The pest or weed control at 200 ppm in series [2] and in series [8] was at least 80% each time.
For the compound `COC(=O)C(C)OC(=O)c1cc2c(cc1F)COB2O` (stereo not shown) [Compound 393], the pest or weed control at 200 ppm in series [2] and in series [8] was at least 80% each time. Further, the inhibition at 200 ppm in [3], in [5] and in series [9] was at least 80% each time.
For `O=C(OCC#Cc1ccccc1)c1cc2c(cc1Cl)COB2O` [Compound 232], the inhibition at 200 ppm in [1], in [10], in series [11], in [3], in series [5] and in series [6] was at least 80% throughout. Moreover, the inhibition at 200 ppm in [7] and in [9] was at least 80% in each case. Also, the pest or weed control at 200 ppm in series [8] and in [14] was at least 80% throughout.
As for `CC(C)c1ccc(NC(=O)c2cc3c(cc2Cl)COB3O)cc1` [Compound 110], the inhibition at 200 ppm in series [1] and in [7] was at least 80% each time. Further, in [14], the pest or weed control at 200 ppm is at least 80%.
With `COC(=O)COC(=O)c1ccc2c(c1)B(O)OC2` [Compound 356], the pest or weed control at 200 ppm in [2], in [8] and in series [13] was at least 80% each time. For the same compound, the inhibition at 200 ppm in series [10], in [3], in series [5], in series [6], in series [7] and in [9] was at least 80% each time.
